“Also recorded” adds a separate entry of the source.
Experiments:
[1] = test system: panel of 14 common tumor suppressor genes; experiment: mRNA expression of 14 tumor suppressor genes in H1703 cells; format: cell-based, human
From the text: (§1) FIGS. 12A-12D show the level of mRNA expression for a panel of 14 common tumor suppressor genes in two types of human lung cancer cells (i.e., H1703 squamous cell carcinoma in FIG. 12A and A549 adenocarcinoma in FIG. 12B). […] All of the tumor suppressor mRNAs were augmented in response to AKB-6899 but one, the CDKN1C gene in A549 adenocarcinoma cells, in which expression levels were 0.1 (AKB10) and 0.9 (AKB50) compared to DMSO standardized to 1.0. In FIGS. 12A-12B, the following apply: “1”=DMSO, “2”=AKB-6899 (10 μM), “3”=AKB-6899 (50 μM), and “4”=combination of Decitabine (5 μM)/PBA (2 mM). FIGS. 12C and 12D are raw values for mRNA expression of these 14 genes.

[2] = test system: 23 different gene promoters; experiment: Percent methylation of 23 gene promoters in H1703 squamous cell carcinoma; format: cell-based, human; conditions: H1703, 10 μM and 50 μM, compared to DMSO
Method: FIGS. 11A-11D show the percent methylation for 23 different gene promoters in two types of human lung cancer cells—FIGS. 11A and 11B are directed at H1703 squamous cell carcinoma and FIG. 11C and FIG. 11D are directed at A549 adenocarcinoma. DMSO was used as a vehicle and was used as a control. […] The Dec/PBA condition represents a combination of 5 μM Decitabine (5-aza-2′deoxycytidine (5-AZA), which is a demethylating agent) and 2 mM […] (PBA, HDAC inhibitor). In all promoters tested, and in both types of lung cancer, AKB-6899 demethylated the gene promoters such that the level of % DNA methylation following AKB-6899 treatment was below the level of % DNA methylation of the DMSO-treated control cells (DMSO).

[3] = test system: panel of 14 common tumor suppressor genes; experiment: mRNA expression of 14 tumor suppressor genes in A549 cells; format: cell-based, human; conditions: for CDKN1C mRNA expression level: DMSO standardized to 1.0
From the text: as §1

c-Myc promoter = experiment: Percent CpG methylation of c-Myc promoter in HeLa cells; format: cell-based, human; conditions: 5 or 25 μM, compared to DMSO and PBA (FIG. 6A)
Method: HeLa cervical cancer cells were left untreated, were treated with DMSO, were treated with 5-AZA, were treated with AKB-6899 (5 or 25 μM), or were treated with PBA (2 mM).

[4] = test system: desmoplakin (DSP) gene promoter; experiment: Methylation of DSP promoter in C8161.9 melanoma cells; format: cell-based, human
Method: (§2) FIGS. 3A-3E show the effect of AKB-6899 (25 μM) on methylation of the desmoplakin (DSP) gene promoter in PyMT breast cancer cells (3A), human MDA-MB-231 triple negative breast cancer cells (3B), human C8161.9 melanoma cells (3C), and human MCF-7 breast cancer cells (3D). In FIG. 3A, the DSP promoter was 100% unmethylated (AKB-6899) vs. 99.99% methylated (vehicle). In FIG. 3B, the DSP promoter was 99.62% unmethylated (AKB-6899) v. 99.89% (vehicle). In FIG. 3C, the DSP promoter was 99.90% unmethylated (AKB-6899) v. 42.04% (vehicle). In FIG. 3D, the DSP promoter was 92.48% unmethylated (AKB-6899) v. 98.48% (vehicle). In FIG. 3E, when compared to the vehicle (DMSO), treatment of PyMT cells with AKB-6899 increased DSP expression.
The gene expression signatures from the tumors of PyMT breast tumor-bearing mice that were treated with either vehicle or AKB-6899 were evaluated. […] Methylation-specific PCR on the desmoplakin promoter was performed. The level of hypomethylation was near complete.

RASSF1 promoter = experiment: CpG methylation of RASSF1 promoter in lungs of normal mice; format: in vivo, mouse; conditions: i.p., three weeks (FIG. 14B)
Method: FIGS. 14A-14C show the effects of systemic administration of AKB-6899. Mice were treated three times per week for three weeks with either i.p. AKB-6899 or i.p. DMSO. The lungs were removed and assayed to determine DNMT mRNA expression, percent CpG methylation, and fold change in mRNA. […] The data was standardized to 1.0 by the DMSO levels of the respective gene expression, (n=4 lungs per condition).

DNMT-1 = DNMT-1 mRNA expression by RT-PCR in MDA-MB-231 tumor cells; format: cell-based, human; conditions: 25 μM, 24 hours, compared to DMSO (FIG. 1B)
Method: FIGS. 1A-1E show DNA methyltransferase mRNA expression in vitro and in vivo. […] PyMT tumor cells were left untreated, were treated with DMSO, or were treated with AKB-6899 (10, 25, or 50 μM) for 24 hours. The cells were subjected to Trizol extraction to recover total RNA. cDNA was synthesized for RT-PCR of DNMT-1 and DNMT-3a mRNA expression. […] Human MDA-MB-231 tumor cells were left untreated, were treated with DMSO, or were treated with AKB-6899 (25 μM) for 24 hours. Total RNA was isolated for RT-PCR. FIG. 1C (DNMT-1), FIG. 1D (DNMT-3a), and FIG. 1E (DNMT-3b) compare the effect of AKB-6899 with the effect of 5-aza-2′deoxycytidine (5-AZA) as assessed by RT-PCR in human cervical tumors implanted in mice that were either untreated (UTX), treated with DMSO, treated with 5-AZA, or treated with AKB-6899 (17.5 mg/kg).
(§3) To determine whether the decrease in DNMT expression and the increase in DSP expression were relevant in human cancer, the level of desmoplakin expression in MDA-MB-231 human triple negative breast cancer cells was determined. […] (FIG. 3B).

[5] = test system: desmoplakin (DSP) gene promoter; experiment: Methylation-specific PCR of DSP promoter in MDA-MB-231 cells; format: cell-based, human
Method: as §2, §3

O=C(O)CNC(=O)c1ncc(-c2cccc(F)c2)cc1O [AKB-6899, {[5-(3-Fluorophenyl)-3-hydroxypyridine-2-carbonyl]amino}acetic acid]
tumor suppressor mRNA expression ([1]; H1703, 10 μM and 50 μM, vs DMSO): augmented
induction of mRNA expression in H1703 compared with A549 ([1]; H1703 vs A549, Decitabine 5 μM/PBA 2 mM): more effective
percent DNA methylation of 23 gene promoters [2]: decreased the percent of DNA methylation in a dose response fashion
CDKN1C mRNA expression level ([3]; A549, 10 μM (AKB10)): 0.1
tumor suppressor mRNA expression ([3]; A549, 10 μM and 50 μM, vs DMSO, all genes but CDKN1C): augmented
CDKN1C mRNA expression level ([3]; A549, 50 μM (AKB50)): 0.9
demethylation of c-Myc promoter (percent CpG methylation) (c-Myc promoter): increase in demethylation
DSP promoter unmethylated ([4]; C8161.9 melanoma cells, 25 μM (FIG. 3C)): 99.90%
level of hypomethylation of desmoplakin promoter (in words) ([4]; C8161.9 melanoma tumor cells): near complete
methylation of RASSF1 promoter in lungs (RASSF1 promoter): demethylated
DNMT-1 mRNA expression (DNMT-1): significantly decreased; also recorded: downregulated
methylation state of DSP promoter CpG islands (in words) ([5]; MDA-MB-231 cells): almost entire demethylation; also recorded: near complete
desmoplakin promoter methylation after treatment ([5]; MDA-MB-231 human triple negative breast cancer cells): 0.38%
DSP promoter unmethylated ([5]; MDA-MB-231 triple negative breast cancer cells, 25 μM (FIG. 3B)): 99.62%

Source: patent US20160199434A1, “COMPOSITIONS AND METHODS FOR MODULATING DNA METHYLATION” (OHIO STATE INNOVATION FOUNDATION, priority 2013, published 2016)
